Laboratory results: publication PMC6851324, “Design and development of stapled transmembrane peptides that disrupt the activity of G-protein–coupled receptor oligomers” (The Journal of Biological Chemistry, 2019)
Where a SMILES comes first, the peptide text is derived from it. Bridges are numbered along the chain shown (N, C = ends). Where no end group is shown, it is not given here. [ ]: non-standard residue; d: D form. S5 = C=CCCC[C@](C)(N)C(=O)O; Nle = CCCC[C@H](N)C(=O)O

experiment: Stability in mouse serum; assay type: in vitro ADME; conditions: 11.1 μM peptide, fresh nonsterile mouse serum (200 μl serum + 25 μl peptide solution, pH 7.5 buffer with 10% DMSO), 37 °C, quench 15% TCA in acetonitrile, HPLC, n = 3; read-out: Half-life (hours), mouse serum (converted)
Method: Figure 4. Biophysical analysis of stapled peptides. A, amino acid sequence alignment of the targeted TM regions and disrupting peptides. Cys residues are in the reduced state. Blue bridges indicate the stapled amino acid residues. […] Yields, purity, and MALDI-TOF data are shown for the stapled peptides and negative control. B, CD analysis of 30–50 μM peptides at 20 °C. For proteolytic stability studies, the peptide solution (55.5 μM for trypsin and chymotrypsin and 11.1 μM for serum) was incubated in the presence of 0.55 μg/ml trypsin from porcine pancreas (E), α-chymotrypsin (F), or mouse serum (G) at 37 °C for the indicated times (indicated on the x axis). Data are mean ± S.E. (error bars) (n = 3) percentage of intact peptide normalized to t = 0. Proteolytic half-lives and putative cleavage sites (predicted using the Expasy bioinformatics server's model with a 50% probability of cleavage) are indicated at the bottom of each panel. Positive correlation between helicity and half-life in trypsin/chymotrypsin (C) or serum (D) was determined by two-tailed Pearson's correlation test. TEXT PRINTED IN THE PICTURE: (B) TM7-TAT: Ellipticity (%): 3.4 | (B) TM6-TAT: Ellipticity (%): 18.3 | (B) TM5-TAT: Ellipticity (%): 20.9 | (B) 8: Ellipticity (%): 58.3 | (B) 9: Ellipticity (%): 46.4 | (B) 10: Ellipticity (%): 36.8 | (B) 11: Ellipticity (%): 46 | (E) TM7-TAT: Half-life (min): 21; #Cleavage sites: 8 | (E) TM6-TAT: Half-life (min): 40; #Cleavage sites: 7 | (E) TM5-TAT: Half-life (min): 33; #Cleavage sites: 8 | (E) 8: Half-life (min): 307; #Cleavage sites: 0 | (E) 9: Half-life (min): 178; #Cleavage sites: 0 | (E) 10: Half-life (min): 75; #Cleavage sites: 6 | (E) 11: Half-life (min): 84; #Cleavage sites: 0 | (F) TM7-TAT: Half-life (min): 22; #Cleavage sites: 6 | (F) TM6-TAT: Half-life (min): 32; #Cleavage sites: 7 | (F) TM5-TAT: Half-life (min): 28; #Cleavage sites: 7 | (F) 8: Half-life (min): 425; #Cleavage sites: 4 | (F) 9: Half-life (min): 198; #Cleavage sites: 3 | (F) 10: Half-life (min): 63; #Cleavage sites: 2 | (F) 11: Half-life (min): 79; #Cleavage sites: 4 | (G) TM7-TAT: Half-life (hours): 0.46 | (G) TM6-TAT: Half-life (hours): 0.55 | (G) TM5-TAT: Half-life (hours): 0.81 | (G) 8: Half-life (hours): ≥18 | (G) 9: Half-life (hours): 14.7 | (G) 10: Half-life (hours): 11.7 | (G) 11: Half-life (hours): 5.3 DOUBTS OF THE COPYIST ABOUT THIS PICTURE: Panel A table (Yield, Rt, Purity, [M+H+] calc., [M+H+] Peak Found for 7-11) left out as synthesis and mass-spectrum characterisation data; uncertain whether [M+H+] calc. should count as a molecular weight
Dose–response curves were fitted using a four-parameter logistic nonlinear regression mode. Peptide stability data were fitted using a nonlinear regression mode for dissociation kinetics. All statistical tests, curve fitting, and graphing were performed using GraphPad Prism 8 (GraphPad Software, La Jolla, CA).
To 200 μl of fresh nonsterile mouse serum was added 25 μl of peptide solution (100 μM, dissolved in ammonium bicarbonate buffer, pH 7.5, containing 10% DMSO), and the mixture was incubated at 37 °C. At the specified time, an aliquot of incubation mixture was withdrawn and quenched by the addition of an equal volume of 15% TCA in acetonitrile to precipitate out serum proteins over ice for 30 min. The mixture was then centrifuged at 13,500 rpm for 10 min, and the supernatant was collected and analyzed by HPLC in a similar manner as described previously. The experiment was repeated twice on different days.

**Q.** Which half-life at 11.1 μM does the source give for `CCCC[C@H](NC(=O)[C@]1(C)CCC/C=C\CCC[C@](C)(NC(=O)[C@H](Cc2ccccc2)NC(=O)[C@H](CC(C)C)NC(=O)[C@H](CC(C)C)NC(=O)[C@H](CC(C)C)NC(=O)[C@@H](N)C(C)C)C(=O)N[C@@H](C(C)C)C(=O)N[C@@H](Cc2ccc(O)cc2)C(=O)N[C@@H](C)C(=O)N1)C(=O)N[C@@H](Cc1ccc(O)cc1)C(=O)N[C@H](C(=O)N[C@@H](CC(C)C)C(=O)N[C@@H](Cc1c[nH]c2ccccc12)C(N)=O)[C@@H](C)CC` [Peptide 8] (H-VLLLF[S5]VYA[S5][Nle]YILW-NH2; staple (Z) 6-10) here?
**A.** ≥ 18 h

**Q.** For “ETYLMFWIGVTSVLLLFIVYAYMYILWGRKKRRQRRR [TM5-TAT, reference compound]”, which half-life at 11.1 μM is on record?
**A.** 0.81 h

**Q.** For “GRKKRRQRRRKTLVLILVVLIICWGPLLAIMVY [TM6-TAT, reference compound]”, which half-life at 11.1 μM is on record?
**A.** 0.55 h
